From US20250295711A1, “FOOD SUPPLEMENT” (FONTERRA CO-OPERATIVE GROUP LIMITED, priority 2022, published 2025)
Marks after values point to notes of the source that are not given here.

Assays:
[1] = system: Adrenocorticotropic Hormone (ACTH); assay: Serum adrenocorticotropic hormone content in CUMS rats; type: in vivo, rat; conditions: for Serum Adrenocorticotropic Hormone (ACTH) Content, After intervention: after CUMS with intervention; for Serum Adrenocorticotropic Hormone (ACTH) Content, After CUMS: before intervention
Procedure: (§1) A series of experiments were conducted using the chronic unpredictable mild stress (CUMS) rodent model. Rats were exposed daily to any two of the following mild physiological stresses selected at random: • 12 hours of water deprivation • 12 hours of food deprivation • 8 hours of damp sawdust • 24 hours of reversed light/dark cycle • 2 minutes of tail pinching • 1 hour of 60 Hz noise • 15 minutes of cage shaking • Swimming in 4° C. water for 5-10 minutes • 2 hours of restraining.
(§2) Six groups of rats were assessed: • 1. Control rats: rats raised normally without stress treatments and without nutritional or drug interventions. • 2. CUMS rats: rats subjected to the CUMS protocol but without nutritional or drug interventions. • 3. CUMS HN001: rats subjected to the CUMS protocol and given HN001. • 4. CUMS HN019: rats subjected to the CUMS protocol and given HN019. • 5. CUMS HN001+HN019: rats subjected to the CUMS protocol given both HN001 and HN019. • 6.
(§3) Baseline assessments were then conducted, including blood collection. For the next 40 days, rats in groups 2-6 were exposed to CUMS treatments to induce depression symptoms associated with stress and anxiety.

[2] = Body weight gain of CUMS rats; type: in vivo, rat; conditions: FIG. 3
Procedure: as §1, §2, §3
The reduced weight gain in rats exposed to CUMS was improved by administration of HN001, HN019, or both (FIG. 3). Also, there were no differences in weight gain between CUMS groups.

Cortisol = Cortisol (HPA axis) after stress; type: in vivo; conditions: stress induced; no data shown
IL-6 = IL-6 content in serum, brain and colon of CUMS rats; type: in vivo, rat; conditions: for IL-6 Content, Brain / IL-6 Content, Colon: end of experiment; for IL-6 Content, serum-after intervention: after CUMS with intervention; for IL-6 Content, serum-after CUMS: before intervention
Procedure: as §1, §2, §3
(§4) A series of blood markers were assessed.

brain and colon tissue = assay: HE staining of brain and colon tissues of CUMS rats; type: in vivo, rat; conditions: brain, FIG. 5
Text: Brain tissues included two regions from the hippocampus (Dentate Gyrus (DG) and CA1) and a region from the cortex (P2).
Brain and colon tissue were stained using the HE method. Brain tissue included two regions from the hippocampus (Dentate Gyrus (DG) and CA1) and a region from the cortex (P2). The results are shown in FIG. 5 and reveal that for the control group, neurons in hippocampal regions (dentate gyrus (DG) and Ca1) and the cortex (P2) were normal, orderly, tightly packed cells. The cells had expected morphology, homogeneous cytoplasmic staining, and no increased interstitial or abnormal changes.
For the colon tissue, control intestinal villi were arranged neatly, with normal cell morphology and no obvious damage was seen.

CUMS rats [3] = assay: Open field test in CUMS (chronic unpredictable mild stress) rats; type: in vivo, rat; conditions: for Total Distance Travelled in Open Field Test, After CUMS only (x ± S): after 40 days CUMS; for Total Distance Travelled in Open Field Test, After CUMS only (x ± S) / Vertical Movement (Number of Times Standing Up) in Open Field Test, After CUMS (x ± S): before intervention; for Vertical Movement (Number of Times Standing Up) in Open Field Test, After intervention (x ± S): after CUMS with intervention; for Total Distance Travelled in Open Field Test, After CUMS + intervention (x ± S): after further 40 days CUMS with intervention; for Total Distance Travelled in Open Field Test, Base line (x ± S) / Vertical Movement (Number of Times Standing Up) in Open Field Test, Base line (x ± S): before CUMS and before intervention
Procedure: as §1, §2, §3
(§5) Tests were then carried out to assess rat behaviours, such as the open field test and the elevated maze test (see FIG. 2). These are standard ways to measure rat stress and anxiety traits.

CUMS rats [4] = assay: Elevated-plus maze test in CUMS rats; type: in vivo, rat; conditions: for Time in Closed Arms in Elevated Plus Maze, After intervention (x ± S) / Total Distance Travelled in Elevated Maze Test, After intervention (x ± S): after CUMS with intervention; for Time in Closed Arms in Elevated Plus Maze, After CUMS (x ± S) / Total Distance Travelled in Elevated Maze Test, After CUMS (x ± S): before intervention; for Time in Closed Arms in Elevated Plus Maze, Base line (x ± S) / Total Distance Travelled in Elevated Maze Test, Base line (x ± S): before CUMS and before intervention
Procedure: as §1, §2, §3, §5

intestinal microbiota = assay: 16S rRNA sequencing of faecal samples (gut microbiota) of CUMS rats; type: in vivo, rat; conditions: for CUMS-induced alterations of relative abundance at phylum level: Firmicutes, Bacteroidetes, Verrucomicrobias, Proteobacterias, Actinobacterias; for CUMS-induced changes at genus level: Lactobacillus, Eubacterium coprostanoligenes group, Lachnospiraceae-NK4A136-group; for CUMS-induced changes of relative abundance at family level: Ruminococcaceae, Lactobacillaceae, Lachnospiraceae; for Sobs, ACE, Chao1 and Shannon index (alpha-diversity): compared with CUMS group, FIG. 9; for Beta diversity, PCoA plot: in comparison with CUMS rats, FIG. 10A; for Firmicutes to Bacteroidetes ratio (F/B ratio): increased after CUMS stimulation
Procedure: To evaluate whether probiotics, as well as CUMS, alter intestinal microbiota, 16S rRNA sequencing of faecal samples was performed. Alpha-diversity, as measured by richness (Sobs index, Chao1 index and ACE index; see FIGS. […]), and diversity (Shannon index; see FIG. 9 D), was decreased after CUMS. Beta diversity analysis was evaluated through PCoA to assess differences in microbial composition among six groups (FIG. 10A).

[5] = system: 5-HT, DA, NE, Glu, GABA, HIAA, DOPAC, HVA; assay: Neurotransmitters and their metabolites in serum and brain of CUMS rats; type: in vivo, rat; conditions: FIG. 6
Text: The level of serum and brain 5-HT, DA, NE, Glu and GABA were detected at the end of the experiment (A, B, D, E, G, H, J, K, L). (C), (F) and (I) show the metabolites of monoamine neurotransmitters in brain. The results are presented as the mean±SEM (n=10). #P<0.05 compared with CUMS group.
HIAA, DOPAC and HVA, as the metabolites of 5-HT, DA and NE, were increased in rat brains after CUMS stimulation.

TNF-α = TNF-α content in serum, brain and colon of CUMS rats; type: in vivo, rat; conditions: for TNF-α Content, Brain / TNF-α Content, Colon: end of experiment; for TNF-α Content, serum-after intervention: after CUMS with intervention; for TNF-α Content, serum-after CUMS: before intervention
Procedure: as §1, §2, §3, §4

[6] = system: Corticotropin Releasing Hormone (CRH); assay: Serum corticotropin releasing hormone content in CUMS rats; type: in vivo, rat; conditions: for Serum Corticotropin Releasing Hormone (CRH) Content, After intervention: after CUMS with intervention; for Serum Corticotropin Releasing Hormone (CRH) Content, After CUMS: before intervention
Procedure: as §1, §2, §3

| Substance | Serum Adrenocorticotropic Hormone (ACTH) Content, After intervention [1] | Serum Adrenocorticotropic Hormone (ACTH) Content, After CUMS [1] | Reduced weight gain in rats exposed to CUMS [2] | Cortisol level (Cortisol) | IL-6 Content, Brain (IL-6) | IL-6 Content, Colon (IL-6) | IL-6 Content, serum-after intervention (IL-6) | IL-6 Content, serum-after CUMS (IL-6) | Morphology of hippocampus (DG, CA1) and cortex (P2) (brain and colon tissue) | Total Distance Travelled in Open Field Test, After CUMS only (x ± S) (CUMS rats [3]) | Vertical Movement (Number of Times Standing Up) in Open Field Test, After intervention (x ± S) (CUMS rats [3]) | Vertical Movement (Number of Times Standing Up) in Open Field Test, After CUMS (x ± S) (CUMS rats [3]) | Total Distance Travelled in Open Field Test, After CUMS + intervention (x ± S) (CUMS rats [3]) | Total Distance Travelled in Open Field Test, Base line (x ± S) (CUMS rats [3]) [Metres] | Vertical Movement (Number of Times Standing Up) in Open Field Test, Base line (x ± S) (CUMS rats [3]) | Time in Closed Arms in Elevated Plus Maze, After intervention (x ± S) (CUMS rats [4]) | Total Distance Travelled in Elevated Maze Test, After intervention (x ± S) (CUMS rats [4]) | Time in Closed Arms in Elevated Plus Maze, After CUMS (x ± S) (CUMS rats [4]) | Total Distance Travelled in Elevated Maze Test, After CUMS (x ± S) (CUMS rats [4]) | Time in Closed Arms in Elevated Plus Maze, Base line (x ± S) (CUMS rats [4]) [s] | also measured |
| --- | --- | --- | --- | --- | --- | --- | --- | --- | --- | --- | --- | --- | --- | --- | --- | --- | --- | --- | --- | --- | --- |
| Bifidobacterium animalis subsp. lactis strain HN019 | 2.13 ± 1.88^b pg/ml | 5.53 ± 3.43^a pg/ml | improved | reduced closer to non-stressed control levels | 19.25 ± 4.78^b pg/ml | 31.88 ± 7.83^b pg/ml | 10.19 ± 4.47^b pg/ml | 13.08 ± 4.30^a pg/ml | CUMS-associated damage was largely reduced | 5.42 ± 3.11^a Metres | 11.63 ± 4.90^b | 4.50 ± 3.42^a | 12.21 ± 2.54^b Metres | 24.65 ± 3.59 | 19.62 ± 6.80 | 215.28 ± 17.98^b Seconds | 7.91 ± 0.65^b Metres | 288.83 ± 11.57^a Seconds | 3.08 ± 2.21^a Metres | 215.83 ± 23.30 | Total Distance Travelled in Elevated Maze Test, Base line (x ± S) (CUMS rats [4]): 9.35 ± 1.38 Metres; CUMS-induced alterations of relative abundance at phylum level (intestinal microbiota): alleviated the phylum alterations; CUMS-induced changes at genus level (intestinal microbiota): improved; CUMS-induced changes of relative abundance at family level (intestinal microbiota): reversed the changes of family; Sobs, ACE, Chao1 and Shannon index (alpha-diversity) (intestinal microbiota): decreased; Beta diversity, PCoA plot (intestinal microbiota): marked differences; Firmicutes to Bacteroidetes ratio (F/B ratio) (intestinal microbiota): decreased the F/B ratio; Effects of CUMS on neurotransmitters (5-HT, DA, NE, Glu, GABA) and metabolites [5]: able to reverse the effects of CUMS; TNF-α Content, Brain (TNF-α): 60.67 ± 6.65^b pg/ml; TNF-α Content, Colon (TNF-α): 71.34 ± 10.46^b pg/ml; TNF-α Content, serum-after intervention (TNF-α): 12.08 ± 3.68^b pg/ml; TNF-α Content, serum-after CUMS (TNF-α): 23.97 ± 3.69^a pg/ml; Serum Corticotropin Releasing Hormone (CRH) Content, After intervention [6]: 2.47 ± 1.34^b pg/ml; Serum Corticotropin Releasing Hormone (CRH) Content, After CUMS [6]: 5.19 ± 3.48^a pg/ml |
| Lactocaseibacillus rhamnosus strain HN001 | 3.12 ± 2.52^b pg/ml | 5.85 ± 3.35^a pg/ml | improved | reduced closer to non-stressed control levels | 20.44 ± 3.06v pg/ml | 31.56 ± 9.00^b pg/ml | 9.96 ± 4.10^b pg/ml | 14.01 ± 5.98^a pg/ml | CUMS-associated damage was largely reduced | 5.64 ± 2.10^a Metres | 13.57 ± 4.39^b | 3.43 ± 2.88^a | 14.62 ± 7.97^b Metres | 23.43 ± 8.42 | 19.67 ± 6.26 | 220.28 ± 11.45^b Seconds | 8.61 ± 1.63^b Metres | 280.00 ± 9.58^a Seconds | 3.17 ± 1.88^a Metres | 230.69 ± 23.78 | Total Distance Travelled in Elevated Maze Test, Base line (x ± S) (CUMS rats [4]): 8.28 ± 0.81 Metres; CUMS-induced alterations of relative abundance at phylum level (intestinal microbiota): alleviated the phylum alterations; CUMS-induced changes at genus level (intestinal microbiota): improved; CUMS-induced changes of relative abundance at family level (intestinal microbiota): reversed the changes of family; Sobs, ACE, Chao1 and Shannon index (alpha-diversity) (intestinal microbiota): decreased; Beta diversity, PCoA plot (intestinal microbiota): marked differences; Firmicutes to Bacteroidetes ratio (F/B ratio) (intestinal microbiota): decreased the F/B ratio; Effects of CUMS on neurotransmitters (5-HT, DA, NE, Glu, GABA) and metabolites [5]: able to reverse the effects of CUMS; TNF-α Content, Brain (TNF-α): 61.99 ± 5.17^b pg/ml; TNF-α Content, Colon (TNF-α): 79.89 ± 11.48^b pg/ml; TNF-α Content, serum-after intervention (TNF-α): 12.88 ± 4.62^b pg/ml; TNF-α Content, serum-after CUMS (TNF-α): 21.12 ± 6.40^a pg/ml; Serum Corticotropin Releasing Hormone (CRH) Content, After intervention [6]: 2.38 ± 1.59^b pg/ml; Serum Corticotropin Releasing Hormone (CRH) Content, After CUMS [6]: 5.53 ± 2.77^a pg/ml |
